Literature values as cited in paper PMC7178755 (Toxicology and applied pharmacology, 2019).
Read-outs that look alike come from different tables or passages of the source. Marks after values point to notes of the source that are not given here.

Experiments:
[1] = rat, in vivo, 100 mg/kg; cited from earlier work
[2] = rat uterotrophic assay; administered orally; ref Conley et al., 2016; cited from earlier work
[3] = free BPA; female SD rats; 0.1 mg/kg gavage; ref Dorege et al., (2010); cited from earlier work
[4] = free BPA; female CD-1 mice; 100 mg/kg gavage; ref Taylor et al., (2015); cited from earlier work
[5] = free BPA; female Rhesus Monkeys; 0.4 mg/kg oral; ref Taylor et al., (2015); cited from earlier work

SMILES	time of maximum plasma concentration [1]	ED50 [2]	AUC0−∞ [3]	Cmax [3]	Dose-normalized AUC0−∞ [3]	Dose-normalized Cmax [3]	AUC0−∞ [4]	Cmax [4]	Dose-normalized AUC0−∞ [4]	Dose-normalized Cmax [4]	Tmax [4]	AUC0−∞ [5]	Cmax [5]	Half-life (terminal, beta) [5]	Tmax [5]
O=C(O)[C@H]1O[C@@H](Oc2ccc(C(c3ccc(O)cc3)(C(F)(F)F)C(F)(F)F)cc2)[C@H](O)[C@@H](O)[C@@H]1O [BPAF-glucuronide]	30 min	–	–	–	–	–	–	–	–	–	–	–	–	–	–
CC(C)(c1ccc(O)cc1)c1ccc(O)cc1 [BPA, bisphenol A]	–	1118.0 mg/kg/day	0.0026^g nmol.h/mL	0.39 nM	5.91 (nmol.h/mL)/(mmol/kg)	0.886 (nmol/mL)/(mmol/kg)	13.1^i nmol.h/mL	4.16 µM	29.8 (nmol.h/mL)/(mmol/kg)	9.47 (nmol/mL)/(mmol/kg)	1 h	0.0589^i nmol.h/mL	17.3 nM	8.88 h	1 h
